Series [1] deals with Puccinia recondita f. Sp. Tritici. The series is described as follows: Puccinia recondita f. sp. tritici / wheat / leaf disc preventative (brown rust). As to conditions: foliar, 200 ppm in the applied formulation, wheat leaf segments cv. Kanzler, preventative (inoculated 1 day after application), compared to untreated, read-out: disease control. It is filed as in vivo. Summed up: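 Wheat leaf segments (cv. Kanzler) on water agar were sprayed with test compound (DMSO stock diluted in 0.025% Tween20/water), then spore-inoculated 1 day later. Incubation at 19° C., 75% rh, 12 h light/12 h dark; percent disease control versus untreated segments scored 7 to 9 days after application. Tested at 200 ppm.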

The test system is the same in series [2]. The series is described as follows: Puccinia recondita f. sp. tritici / wheat / leaf disc curative (brown rust). It is filed as in vivo. The conditions noted are these: foliar, 24 h, 200 ppm in the applied formulation, wheat leaf segments cv. Kanzler, curative (applied 1 day after inoculation), compared to untreated, read-out: disease control. The procedure, abridged: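 Segments of wheat (cultivar Kanzler) sit on agar and are spore-inoculated first; after one day in darkness at 19° C and 75% RH the diluted formulated compound is sprayed on. A 12 h photoperiod follows at the same temperature and humidity before disease is scored against untreated controls.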

The test system of series [3] is Phakopsora pachyrhizi. The series is described as follows: Phakopsora pachyrhizi / soybean / leaf disc preventative (Asian soybean rust). Type of series: in vivo. As to conditions: foliar, 200 ppm in the applied formulation, soybean leaf disks, compared to untreated, read-out: disease control. Summed up:
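Read-out is percent disease control relative to untreated check discs, assessed once untreated discs show adequate disease, 12 to 14 days after application. Compounds, tested at 200 ppm in the applied formulation, are sprayed onto soybean leaf discs one day before inoculation with a spore suspension.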

The subject of series [4] is Glomerella lacenarium (Colletotrichum lagenarium). The series is described as follows: Glomerella lagenarium liquid culture / cucumber / preventative (anthracnose). It is filed as cell-based. The conditions noted are these: Colletotrichum orbiculare; 20 ppm in the applied formulation; liquid culture (PDB), growth inhibition measured photometrically 3 to 4 days after application; compared to untreated; read-out: disease control. The procedure, abridged: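 Conidia from cryogenic storage were mixed into potato dextrose broth. This was added to compound diluted from DMSO into 0.025% Tween20, tested at 20 ppm. Plates were incubated in the dark at 24 °C and 96% relative humidity, and growth was read photometrically after 2–7 days as % activity versus untreated check.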

Series [5] deals with Uromyces viciae-fabae. Nature of the series: Uromyces viciae-fabae / field bean / leaf disc preventative (faba-bean rust). Type of series: in vivo. As to conditions: foliar, 288 h, 100 ppm in the applied formulation, field bean leaf discs, compared to untreated, read-out: disease control. How it is done: Leaf disks or leaf segments of various plant species are cut from plants grown in a greenhouse. The cut leaf disks or segments are placed in multiwell plates (24-well format) onto water agar. The leaf disks are sprayed with a test solution before (preventative) or after (curative) inoculation. Compounds to be tested are prepared as DMSO solutions (max. 10 mg/ml) which are diluted to the appropriate concentration with 0.025% Tween20 just before spraying. The inoculated leaf disks or segments are incubated under defined conditions (temperature, relative humidity, light, etc.) according to the respective test system. A single evaluation of disease level is carried out 3 to 14 days after inoculation, depending on the pathosystem. Percent disease control relative to the untreated check leaf disks or segments is then calculated. Field bean leaf discs are placed on water agar in multiwell plates (96-well format) and 10 μl of the formulated test compound diluted in acetone and a spreader pipetted onto the leaf disc. Two hours after application leaf discs are inoculated by spraying a spore suspension on the lower leaf surface. The leaf discs are incubated in a climate cabinet at 22° C. with 18 hour light/day and 70% relative humidity. The activity of a compound is assessed as percent disease control compared to untreated when an appropriate level of disease damage appears in untreated check leaf disks (12 days after application). The following compounds at 100 ppm in the applied formulation give at least 80% disease control in this test when compared to untreated control leaf discs under the same conditions, which show extensive disease development.

Bounds are passed on as bounds.

Consider `CCC(=O)NCc1ccc(-c2noc(C(F)(F)F)n2)cc1` [Compound 1.1, N-[[4-[5-(trifluoromethyl)-1,2,4-oxadiazol-3-yl]phenyl]methyl]propanamide], for which the pest or weed control at 200 ppm in series [1], in series [2] and in series [3] was not below 80% throughout. For the same compound, in series [4], the inhibition of growth at 20 ppm is not below 80%. In series [5], the pest or weed control at 100 ppm is not below 80%.

Consider `CCC(COC)C(=O)NCc1ccc(-c2noc(C(F)(F)F)n2)cc1` (stereo not drawn) [Compound 1.19, 2-(methoxymethyl)-N-[[4-[5-(trifluoromethyl)-1,2,4-oxadiazol-3-yl]phenyl]methyl]butanamide], for which the pest or weed control at 200 ppm in series [1], in series [2] and in series [3] was not below 80% throughout. Also, in series [4], the inhibition of growth at 20 ppm is not below 80%. Also, the pest or weed control at 100 ppm in series [5] is not below 80%.

Consider `COCCC(=O)NCc1ccc(-c2noc(C(F)(F)F)n2)cc1` [Compound 1.11, 3-methoxy-N-[[4-[5-(trifluoromethyl)-1,2,4-oxadiazol-3-yl]phenyl]methyl]propanamide], for which the pest or weed control at 200 ppm in series [1] and in series [3] was not below 80% in each case. Besides, the inhibition of growth at 20 ppm in series [4] is not below 80%. In series [5], the pest or weed control at 100 ppm was not below 80%.

`CCC(CC(=O)NCc1ccc(-c2noc(C(F)(F)F)n2)cc1)C(F)(F)F` (stereo not drawn) [Compound 1.24, 3-(trifluoromethyl)-N-[[4-[5-(trifluoromethyl)-1,2,4-oxadiazol-3-yl]phenyl]methyl]pentanamide]: in series [5], the pest or weed control at 100 ppm was not below 80%.

Turning to `C=C(C)C(=O)NCc1ccc(-c2noc(C(F)(F)F)n2)cc1` [Compound 1.16, 2-methyl-N-[[4-[5-(trifluoromethyl)-1,2,4-oxadiazol-3-yl]phenyl]methyl]prop-2-enamide], the pest or weed control at 200 ppm in series [1] and in series [3] was not below 80% throughout. Besides, the inhibition of growth at 20 ppm in series [4] is not below 80%. The pest or weed control at 100 ppm in series [5] was not below 80%.

As usually defined, the melting point is the temperature of the solid-liquid transition. As to `COC(=O)NCCc1ccc(-c2noc(C(F)(F)F)n2)cc1` [Compound 2.36, methyl N-[2-[4-[5-(trifluoromethyl)-1,2,4-oxadiazol-3-yl]phenyl]ethyl]carbamat], the melting point was 84.8 to 86.5 °C. Further, the pest or weed control at 200 ppm in series [1] is not below 80%. Moreover, the pest or weed control at 200 ppm in series [2] was not below 80%. Moreover, in series [3], the pest or weed control at 200 ppm is not below 80%. In series [4], the inhibition of growth at 20 ppm is not below 80%.

With `COCCC(=O)NC(C)(C)c1ccc(-c2noc(C(F)(F)F)n2)cc1` [Compound 1.94, 3-methoxy-N-[1-methyl-1-[4-[5-(trifluoromethyl)-1,2,4-oxadiazol-3-yl]phenyl]ethyl]propanamide], the melting point lay within 94 to 103 °C. Moreover, the pest or weed control at 200 ppm in series [1] is not below 80%. The pest or weed control at 200 ppm in series [2] is not below 80%. Besides, the pest or weed control at 200 ppm in series [3] was not below 80%. Also, the inhibition of growth at 20 ppm in series [4] was not below 80%.

On to `CC(OC(F)F)C(=O)NCc1ccc(-c2noc(C(F)(F)F)n2)cc1` (stereo not drawn) [Compound 1.33, 2-(difluoromethoxy)-N-[[4-[5-(trifluoromethyl)-1,2,4-oxadiazol-3-yl]phenyl]methyl]propanamide], for which the melting point was 66 to 70 °C. Moreover, the pest or weed control at 200 ppm in series [1] was not below 80%. Moreover, the pest or weed control at 200 ppm in series [2] was not below 80%. Moreover, the pest or weed control at 200 ppm in series [3] was not below 80%. Moreover, the inhibition of growth at 20 ppm in series [4] was not below 80%.

`CCOC(=O)NCCc1ccc(-c2noc(C(F)(F)F)n2)cc1` [Compound 2.5, ethyl N-[2-[4-[5-(trifluoromethyl)-1,2,4-oxadiazol-3-yl]phenyl]ethyl]carbamate] returned a melting point of 92 to 96 °C. Besides, in series [1], the pest or weed control at 200 ppm is not below 80%. Also, the pest or weed control at 200 ppm in series [2] was not below 80%. Moreover, in series [3], the pest or weed control at 200 ppm is not below 80%. For the same compound, the inhibition of growth at 20 ppm in series [4] is not below 80%.

With `N#CCC(=O)NCc1ccc(-c2noc(C(F)(F)F)n2)cc1` [Compound 1.22, 2-cyano-N-[[4-[5-(trifluoromethyl)-1,2,4-oxadiazol-3-yl]phenyl]methyl]acetamide], the pest or weed control at 200 ppm in series [1], in series [2] and in series [3] was not below 80% throughout. In series [5], the pest or weed control at 100 ppm is not below 80%.

In turn, `CCCOC(=O)NCc1ccc(-c2noc(C(F)(F)F)n2)cc1` [Compound 2.6, propyl N-[[4-[5-(trifluoromethyl)-1,2,4-oxadiazol-3-yl]phenyl]methyl]carbamate] came in with a melting point of 107.8 to 109.7 °C. In addition, the pest or weed control at 200 ppm in series [1] was not below 80%. Moreover, in series [2], the pest or weed control at 200 ppm is not below 80%. The pest or weed control at 200 ppm in series [3] is not below 80%. The inhibition of growth at 20 ppm in series [4] is not below 80%.

`CN(C)C(=O)NCc1ccc(-c2noc(C(F)(F)F)n2)cc1` [Compound 3.1, 1,1-dimethyl-3-[[4-[5-(trifluoromethyl)-1,2,4-oxadiazol-3-yl]phenyl]methyl]urea] yielded a melting point of 118 to 125 °C. In series [1], the pest or weed control at 200 ppm is not below 80%. Also, in series [2], the pest or weed control at 200 ppm was not below 80%. In addition, the pest or weed control at 200 ppm in series [3] is not below 80%. The inhibition of growth at 20 ppm in series [4] was not below 80%.

Regarding `CON(C)C(=O)NCCc1ccc(-c2noc(C(F)(F)F)n2)cc1` [Compound 3.5, 1-methoxy-1-methyl-3-[2-[4-[5-(trifluoromethyl)-1,2,4-oxadiazol-3-yl]phenyl]ethyl]urea], the melting point was in the range of 80 to 84 °C. For the same compound, in series [1], the pest or weed control at 200 ppm was not below 80%. Also, the pest or weed control at 200 ppm in series [2] was not below 80%. Also, the pest or weed control at 200 ppm in series [3] was not below 80%. In addition, the inhibition of growth at 20 ppm in series [4] was not below 80%.

Consider `O=C(CCCCC(F)(F)F)NCc1ccc(-c2noc(C(F)(F)F)n2)cc1` [Compound 1.18, 6,6,6-trifluoro-N-[[4-[5-(trifluoromethyl)-1,2,4-oxadiazol-3-yl]phenyl]methyl]hexanamide], for which the pest or weed control at 200 ppm in series [1] and in series [3] was not below 80% in each case. In series [5], the pest or weed control at 100 ppm is not below 80%.

With `CCC(=O)NC1(c2ccc(-c3noc(C(F)(F)F)n3)cc2)CC1` [Compound 1.99, N-[1-[4-[5-(trifluoromethyl)-1,2,4-oxadiazol-3-yl]phenyl]cyclopropyl]propanamide], the melting point lay in the range of 121 to 128 °C. Also, in series [1], the pest or weed control at 200 ppm was not below 80%. Also, the pest or weed control at 200 ppm in series [2] was not below 80%. The pest or weed control at 200 ppm in series [3] was not below 80%. Besides, the inhibition of growth at 20 ppm in series [4] is not below 80%.

`CCC(=O)NC(C#N)c1ccc(-c2noc(C(F)(F)F)n2)cc1` (stereo not drawn) [Compound 1.100, N-[cyano-[4-[5-(trifluoromethyl)-1,2,4-oxadiazol-3-yl]phenyl]methyl]propanamide]: the melting point was in the range of 185 to 186 °C. The pest or weed control at 200 ppm in series [1] was not below 80%. Moreover, the pest or weed control at 200 ppm in series [2] is not below 80%. Further, the pest or weed control at 200 ppm in series [3] was not below 80%. Also, the inhibition of growth at 20 ppm in series [4] is not below 80%.

Regarding `CON(C)C(=O)NC(C)(C)c1ccc(-c2noc(C(F)(F)F)n2)cc1` [Compound 3.25, 1-methoxy-1-methyl-3-[1-methyl-1-[4-[5-(trifluoromethyl)-1,2,4-oxadiazol-3-yl]phenyl]ethyl]urea], the melting point fell in the range of 78 to 83 °C. In addition, in series [1], the pest or weed control at 200 ppm was not below 80%. For the same compound, in series [2], the pest or weed control at 200 ppm was not below 80%. Also, the pest or weed control at 200 ppm in series [3] is not below 80%. Moreover, the inhibition of growth at 20 ppm in series [4] was not below 80%.

Compound `COC(=O)NCc1ccc(-c2noc(C(F)(F)F)n2)cc1` [Compound 2.4, methyl N-[[4-[5-(trifluoromethyl)-1,2,4-oxadiazol-3-yl]phenyl]methyl]carbamate] yielded a melting point of 116 to 119 °C. In addition, the pest or weed control at 200 ppm in series [1] is not below 80%. In addition, the pest or weed control at 200 ppm in series [2] was not below 80%. For the same compound, in series [3], the pest or weed control at 200 ppm was not below 80%. Also, the inhibition of growth at 20 ppm in series [4] is not below 80%.
